Results on 2 compounds are retold here after article PMC3810962 (Cancer research, 2012).

The target of assay [1] is T1, ROCK2 (Homo sapiens, UniProt O75116). The experiment in a line: ProfilerPro kinase panel, % inhibition at […]. It is filed as biochemical. The settings on record: 0.2 µM.
Assay [2] has as its target T2, PKCepsilon (Homo sapiens, UniProt Q02156).
T2 sequence (Q02156 1-737): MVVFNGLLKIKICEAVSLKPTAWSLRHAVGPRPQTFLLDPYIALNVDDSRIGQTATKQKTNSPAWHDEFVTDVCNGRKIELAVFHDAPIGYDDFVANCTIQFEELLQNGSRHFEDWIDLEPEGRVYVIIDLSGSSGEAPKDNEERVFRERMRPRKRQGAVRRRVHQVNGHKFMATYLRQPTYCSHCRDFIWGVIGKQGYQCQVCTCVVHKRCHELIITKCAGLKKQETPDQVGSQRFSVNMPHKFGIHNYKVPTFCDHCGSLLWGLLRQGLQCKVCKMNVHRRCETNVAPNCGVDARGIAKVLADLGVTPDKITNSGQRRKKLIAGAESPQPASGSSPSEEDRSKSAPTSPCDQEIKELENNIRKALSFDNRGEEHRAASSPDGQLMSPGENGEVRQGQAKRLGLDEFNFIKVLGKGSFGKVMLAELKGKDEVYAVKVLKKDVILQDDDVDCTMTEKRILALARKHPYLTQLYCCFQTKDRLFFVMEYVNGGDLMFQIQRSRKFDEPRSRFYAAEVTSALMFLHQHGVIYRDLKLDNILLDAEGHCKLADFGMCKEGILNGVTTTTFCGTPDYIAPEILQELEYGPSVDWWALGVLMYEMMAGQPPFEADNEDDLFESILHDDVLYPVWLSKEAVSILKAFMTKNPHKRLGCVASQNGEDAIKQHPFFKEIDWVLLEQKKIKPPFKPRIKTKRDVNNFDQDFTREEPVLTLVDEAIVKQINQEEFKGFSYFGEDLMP
The experiment in a line: biochemical. The note with it: read-out: % inhibition.

Assay [3] deals with T3, PRKX (Homo sapiens, UniProt P51817).
T3 sequence (P51817 1-358): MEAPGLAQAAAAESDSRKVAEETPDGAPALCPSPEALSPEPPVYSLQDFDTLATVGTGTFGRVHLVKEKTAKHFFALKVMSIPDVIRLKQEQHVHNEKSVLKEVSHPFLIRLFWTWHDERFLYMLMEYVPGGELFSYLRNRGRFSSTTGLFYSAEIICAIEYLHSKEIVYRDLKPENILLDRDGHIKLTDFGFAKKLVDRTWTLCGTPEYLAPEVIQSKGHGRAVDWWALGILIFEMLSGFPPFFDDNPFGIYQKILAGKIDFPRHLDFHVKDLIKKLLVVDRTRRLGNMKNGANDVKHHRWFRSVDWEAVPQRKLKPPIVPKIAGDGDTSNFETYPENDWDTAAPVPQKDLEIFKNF
The experiment in a line: biochemical. The note with it: read-out: % inhibition.

Assay [4] has as its target PKA (Homo sapiens, UniProt P17612). The experiment in a line: biochemical. The note with it: read-out: % inhibition.
Assay [5] concerns the target T1, ROCK2. The experiment in a line: biochemical. The settings on record: read-out: % inhibition.
For assay [6], the target named is RSK2 (Homo sapiens, UniProt P51812). As to the kind of experiment: biochemical. The settings on record: read-out: % inhibition.
The target in assay [7] is T4, IKKbeta (Homo sapiens, UniProt O14920).
T4 sequence (O14920 1-756): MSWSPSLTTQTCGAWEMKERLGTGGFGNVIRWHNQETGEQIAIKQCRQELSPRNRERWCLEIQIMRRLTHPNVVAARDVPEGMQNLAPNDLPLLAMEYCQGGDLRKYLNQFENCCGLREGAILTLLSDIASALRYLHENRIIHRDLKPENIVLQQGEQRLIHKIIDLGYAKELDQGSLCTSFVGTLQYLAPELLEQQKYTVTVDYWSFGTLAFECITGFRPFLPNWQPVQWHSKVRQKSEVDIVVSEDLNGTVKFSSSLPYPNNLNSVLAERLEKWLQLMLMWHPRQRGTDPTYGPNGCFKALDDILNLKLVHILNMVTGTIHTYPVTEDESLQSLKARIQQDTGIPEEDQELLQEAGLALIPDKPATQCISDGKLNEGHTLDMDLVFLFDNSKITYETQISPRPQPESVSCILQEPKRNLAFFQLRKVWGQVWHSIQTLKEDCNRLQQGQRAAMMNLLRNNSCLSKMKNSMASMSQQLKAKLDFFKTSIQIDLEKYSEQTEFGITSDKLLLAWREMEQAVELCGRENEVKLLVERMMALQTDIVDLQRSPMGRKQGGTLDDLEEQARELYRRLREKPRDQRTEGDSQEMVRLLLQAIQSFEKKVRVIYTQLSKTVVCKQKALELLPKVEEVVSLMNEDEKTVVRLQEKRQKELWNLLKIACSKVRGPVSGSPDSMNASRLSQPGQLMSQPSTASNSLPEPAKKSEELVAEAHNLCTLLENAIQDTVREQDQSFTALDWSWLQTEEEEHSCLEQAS
The experiment in a line: biochemical. The settings on record: read-out: % inhibition.

In assay [8] the target is PKCbeta1 (Homo sapiens, UniProt P05771). The experiment in a line: biochemical. The note with it: read-out: % inhibition.
Assay [9] addresses T5, STK10 (Homo sapiens, UniProt O94804). The experiment in a line: biochemical. The note with it: read-out: % inhibition.
Assay [10] addresses T6, PKG1b (Homo sapiens, UniProt Q13976).
T6 sequence (Q13976 1-671): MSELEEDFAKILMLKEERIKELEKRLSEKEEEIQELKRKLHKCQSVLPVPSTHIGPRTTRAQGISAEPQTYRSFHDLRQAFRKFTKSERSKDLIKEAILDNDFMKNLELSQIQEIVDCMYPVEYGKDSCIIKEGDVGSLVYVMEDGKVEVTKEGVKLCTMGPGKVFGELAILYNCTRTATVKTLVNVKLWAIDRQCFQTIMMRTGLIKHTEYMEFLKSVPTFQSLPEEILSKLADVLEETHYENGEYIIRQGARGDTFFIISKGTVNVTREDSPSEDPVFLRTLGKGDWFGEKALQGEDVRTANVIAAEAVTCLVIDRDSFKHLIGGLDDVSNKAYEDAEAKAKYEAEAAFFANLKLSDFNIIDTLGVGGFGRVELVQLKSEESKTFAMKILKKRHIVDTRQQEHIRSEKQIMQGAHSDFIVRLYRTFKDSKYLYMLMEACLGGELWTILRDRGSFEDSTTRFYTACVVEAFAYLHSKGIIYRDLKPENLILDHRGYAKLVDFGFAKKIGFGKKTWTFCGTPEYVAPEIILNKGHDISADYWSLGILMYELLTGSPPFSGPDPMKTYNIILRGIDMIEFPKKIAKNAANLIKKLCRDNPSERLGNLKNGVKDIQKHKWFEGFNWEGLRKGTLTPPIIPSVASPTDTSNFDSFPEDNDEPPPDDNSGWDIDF
The experiment in a line: biochemical. The note with it: read-out: % inhibition.

In assay [11] the target is T7, MST1 (Homo sapiens, UniProt Q13043).
T7 sequence (Q13043 1-487): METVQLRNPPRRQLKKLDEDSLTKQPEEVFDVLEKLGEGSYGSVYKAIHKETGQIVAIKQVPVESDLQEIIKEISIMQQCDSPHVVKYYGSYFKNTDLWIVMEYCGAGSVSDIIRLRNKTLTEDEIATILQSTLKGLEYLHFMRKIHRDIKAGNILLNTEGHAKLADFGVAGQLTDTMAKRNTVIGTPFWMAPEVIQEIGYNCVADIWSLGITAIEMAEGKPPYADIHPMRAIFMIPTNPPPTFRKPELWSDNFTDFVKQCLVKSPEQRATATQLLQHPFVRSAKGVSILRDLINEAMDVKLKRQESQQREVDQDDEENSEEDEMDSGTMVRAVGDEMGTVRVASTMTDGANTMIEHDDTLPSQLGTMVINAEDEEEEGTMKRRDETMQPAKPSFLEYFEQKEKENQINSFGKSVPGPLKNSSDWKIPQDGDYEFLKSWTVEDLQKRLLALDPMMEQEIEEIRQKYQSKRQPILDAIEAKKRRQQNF
The experiment in a line: biochemical. The note with it: read-out: % inhibition.

Assay [12] addresses T8, PKG (Homo sapiens, UniProt Q13976).
T8 sequence (Q13976 1-671): T6 sequence (Q13976 1-671)
The experiment in a line: biochemical. The settings on record: read-out: % inhibition.

Assay [13] deals with RSK3 (Homo sapiens, UniProt Q15349). As to the kind of experiment: biochemical. The note with it: read-out: % inhibition.
The target of assay [14] is MNK1 (Homo sapiens, UniProt Q9BUB5). The experiment in a line: biochemical. The settings on record: read-out: % inhibition.
Assay [15] addresses T9, ROCK1 (Homo sapiens, UniProt Q13464). The experiment in a line: biochemical. The settings on record: read-out: % inhibition.
Assay [16] has as its target T10, ARK5 (Homo sapiens, UniProt O60285).
T10 sequence (O60285 1-661): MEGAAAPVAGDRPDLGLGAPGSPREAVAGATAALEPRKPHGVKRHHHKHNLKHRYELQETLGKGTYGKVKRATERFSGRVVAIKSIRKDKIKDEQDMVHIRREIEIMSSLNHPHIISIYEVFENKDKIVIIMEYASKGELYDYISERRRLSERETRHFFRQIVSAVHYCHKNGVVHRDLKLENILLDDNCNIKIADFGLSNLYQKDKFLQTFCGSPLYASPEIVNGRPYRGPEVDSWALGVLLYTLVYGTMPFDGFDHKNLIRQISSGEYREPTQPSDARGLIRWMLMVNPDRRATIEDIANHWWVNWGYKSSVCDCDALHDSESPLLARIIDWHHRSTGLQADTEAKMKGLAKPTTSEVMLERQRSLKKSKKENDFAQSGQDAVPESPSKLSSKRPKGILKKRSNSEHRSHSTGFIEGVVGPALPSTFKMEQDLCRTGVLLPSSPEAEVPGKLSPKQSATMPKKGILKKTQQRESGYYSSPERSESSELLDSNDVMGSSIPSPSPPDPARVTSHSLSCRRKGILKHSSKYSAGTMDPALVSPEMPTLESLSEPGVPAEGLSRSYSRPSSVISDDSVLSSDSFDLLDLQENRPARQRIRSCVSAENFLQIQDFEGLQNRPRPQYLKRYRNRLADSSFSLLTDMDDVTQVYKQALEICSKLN
As to the kind of experiment: biochemical. The settings on record: read-out: % inhibition.

The target in assay [17] is T11, PKCtheta (Homo sapiens, UniProt Q04759). As to the kind of experiment: biochemical. The note with it: read-out: % inhibition.
Assay [18] concerns the target RSK1 (Homo sapiens, UniProt Q15418). The experiment in a line: biochemical. The settings on record: read-out: % inhibition.
In assay [19] the target is PKCdelta (Homo sapiens, UniProt Q05655). The experiment in a line: biochemical. The note with it: read-out: % inhibition.
Assay [20] deals with T9, ROCK1. The experiment in a line: ProfilerPro kinase panel, % inhibition at […]. It is filed as biochemical. The settings on record: 0.2 µM.
Assay [21] has as its target T5, STK10. The experiment in a line: ProfilerPro kinase panel, % inhibition at […]. It is filed as biochemical. The settings on record: 0.2 µM.
Assay [22] deals with T9, ROCK1. As to the kind of experiment: biochemical. The note with it: read-out: Compound / OXA-06.
Assay [23] concerns the target T5, STK10. As to the kind of experiment: ProfilerPro kinase panel, % inhibition at […]. It is filed as biochemical. The note with it: read-out: Compound / Y27632.
Assay [24] concerns the target T1, ROCK2. As to the kind of experiment: ProfilerPro kinase panel, % inhibition at […]. The settings on record: read-out: Compound / OXA-06. The assay is classed as biochemical.
Assay [25] deals with T11, PKCtheta. As to the kind of experiment: ProfilerPro kinase panel, % inhibition at […]. It is filed as biochemical. The note with it: read-out: Compound / Y27632.

T1 sequence (O75116 whole entry): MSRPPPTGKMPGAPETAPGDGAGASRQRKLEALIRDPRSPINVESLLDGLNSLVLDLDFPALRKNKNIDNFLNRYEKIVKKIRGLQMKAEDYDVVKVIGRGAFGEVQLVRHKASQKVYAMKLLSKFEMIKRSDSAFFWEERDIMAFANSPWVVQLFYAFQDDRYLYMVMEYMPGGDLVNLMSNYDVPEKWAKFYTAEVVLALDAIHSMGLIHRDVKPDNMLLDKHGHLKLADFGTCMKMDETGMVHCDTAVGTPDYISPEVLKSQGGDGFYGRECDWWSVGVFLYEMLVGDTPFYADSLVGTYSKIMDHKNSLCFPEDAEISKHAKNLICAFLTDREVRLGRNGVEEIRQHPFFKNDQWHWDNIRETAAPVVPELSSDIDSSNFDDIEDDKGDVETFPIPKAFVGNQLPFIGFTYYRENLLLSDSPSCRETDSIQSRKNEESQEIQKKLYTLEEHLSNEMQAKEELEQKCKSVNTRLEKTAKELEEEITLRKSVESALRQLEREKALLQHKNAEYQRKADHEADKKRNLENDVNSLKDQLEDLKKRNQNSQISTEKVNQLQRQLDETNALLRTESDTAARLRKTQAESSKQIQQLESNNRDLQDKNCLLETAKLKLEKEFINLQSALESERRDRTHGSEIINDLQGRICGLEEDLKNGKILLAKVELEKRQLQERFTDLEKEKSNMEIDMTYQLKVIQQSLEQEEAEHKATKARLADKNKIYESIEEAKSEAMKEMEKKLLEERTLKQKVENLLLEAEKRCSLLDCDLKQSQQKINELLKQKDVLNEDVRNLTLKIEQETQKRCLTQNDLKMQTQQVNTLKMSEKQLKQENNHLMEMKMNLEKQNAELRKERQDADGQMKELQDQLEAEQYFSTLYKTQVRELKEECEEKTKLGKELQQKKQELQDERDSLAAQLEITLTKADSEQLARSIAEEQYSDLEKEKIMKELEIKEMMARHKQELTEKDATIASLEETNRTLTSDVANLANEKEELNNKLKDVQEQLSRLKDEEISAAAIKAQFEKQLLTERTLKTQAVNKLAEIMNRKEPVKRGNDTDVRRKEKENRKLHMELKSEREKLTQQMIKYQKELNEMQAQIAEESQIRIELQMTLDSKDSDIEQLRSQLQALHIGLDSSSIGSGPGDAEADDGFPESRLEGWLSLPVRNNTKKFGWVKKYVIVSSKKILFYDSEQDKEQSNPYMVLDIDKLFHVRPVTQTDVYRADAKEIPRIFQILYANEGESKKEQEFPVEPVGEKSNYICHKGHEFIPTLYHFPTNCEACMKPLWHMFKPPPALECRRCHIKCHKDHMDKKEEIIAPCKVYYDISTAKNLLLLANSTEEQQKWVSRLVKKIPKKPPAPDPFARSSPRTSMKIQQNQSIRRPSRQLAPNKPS
T5 sequence (O94804 whole entry): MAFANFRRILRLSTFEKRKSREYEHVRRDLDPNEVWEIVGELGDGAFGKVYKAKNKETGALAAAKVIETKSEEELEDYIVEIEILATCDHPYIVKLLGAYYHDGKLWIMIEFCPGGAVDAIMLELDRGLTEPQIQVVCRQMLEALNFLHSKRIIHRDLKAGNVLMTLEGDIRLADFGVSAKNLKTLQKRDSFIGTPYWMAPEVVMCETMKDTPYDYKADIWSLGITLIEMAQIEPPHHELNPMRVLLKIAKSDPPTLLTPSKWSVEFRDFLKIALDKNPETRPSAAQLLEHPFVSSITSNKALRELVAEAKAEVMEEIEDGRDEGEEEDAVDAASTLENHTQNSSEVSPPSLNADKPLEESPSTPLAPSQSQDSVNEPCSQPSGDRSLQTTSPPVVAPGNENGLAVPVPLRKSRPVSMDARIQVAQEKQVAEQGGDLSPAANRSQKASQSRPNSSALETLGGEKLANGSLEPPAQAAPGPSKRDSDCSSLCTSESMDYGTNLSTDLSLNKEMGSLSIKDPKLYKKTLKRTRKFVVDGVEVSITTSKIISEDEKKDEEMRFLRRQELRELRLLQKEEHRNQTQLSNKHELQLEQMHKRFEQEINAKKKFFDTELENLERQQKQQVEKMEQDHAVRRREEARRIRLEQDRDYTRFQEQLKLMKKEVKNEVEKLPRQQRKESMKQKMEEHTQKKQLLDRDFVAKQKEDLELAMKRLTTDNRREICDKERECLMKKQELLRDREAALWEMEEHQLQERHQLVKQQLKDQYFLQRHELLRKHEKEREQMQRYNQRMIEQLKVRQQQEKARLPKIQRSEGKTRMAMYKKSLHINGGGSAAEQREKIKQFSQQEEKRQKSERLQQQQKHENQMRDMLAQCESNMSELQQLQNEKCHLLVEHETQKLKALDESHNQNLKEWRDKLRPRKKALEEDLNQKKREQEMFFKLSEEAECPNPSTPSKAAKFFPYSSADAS
T11 sequence (Q04759 whole entry): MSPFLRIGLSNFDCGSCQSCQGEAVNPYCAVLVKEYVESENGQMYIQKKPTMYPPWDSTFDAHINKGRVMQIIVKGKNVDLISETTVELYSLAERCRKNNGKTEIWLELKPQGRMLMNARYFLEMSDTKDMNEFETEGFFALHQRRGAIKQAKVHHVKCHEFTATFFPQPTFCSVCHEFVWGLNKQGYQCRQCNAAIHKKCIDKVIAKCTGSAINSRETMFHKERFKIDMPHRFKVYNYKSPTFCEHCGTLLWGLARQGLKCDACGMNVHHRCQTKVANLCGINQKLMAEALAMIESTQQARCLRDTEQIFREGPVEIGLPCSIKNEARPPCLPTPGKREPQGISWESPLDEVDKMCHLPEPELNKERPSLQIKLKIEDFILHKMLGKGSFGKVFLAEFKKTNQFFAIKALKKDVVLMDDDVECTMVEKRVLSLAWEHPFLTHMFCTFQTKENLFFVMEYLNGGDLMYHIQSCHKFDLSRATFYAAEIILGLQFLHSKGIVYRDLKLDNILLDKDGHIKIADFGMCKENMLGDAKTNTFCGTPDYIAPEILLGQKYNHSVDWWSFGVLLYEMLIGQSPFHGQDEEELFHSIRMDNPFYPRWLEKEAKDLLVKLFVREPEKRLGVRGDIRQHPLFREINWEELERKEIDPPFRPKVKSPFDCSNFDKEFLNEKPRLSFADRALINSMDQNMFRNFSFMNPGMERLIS
Sequence of MNK1 (Q9BUB5 whole entry): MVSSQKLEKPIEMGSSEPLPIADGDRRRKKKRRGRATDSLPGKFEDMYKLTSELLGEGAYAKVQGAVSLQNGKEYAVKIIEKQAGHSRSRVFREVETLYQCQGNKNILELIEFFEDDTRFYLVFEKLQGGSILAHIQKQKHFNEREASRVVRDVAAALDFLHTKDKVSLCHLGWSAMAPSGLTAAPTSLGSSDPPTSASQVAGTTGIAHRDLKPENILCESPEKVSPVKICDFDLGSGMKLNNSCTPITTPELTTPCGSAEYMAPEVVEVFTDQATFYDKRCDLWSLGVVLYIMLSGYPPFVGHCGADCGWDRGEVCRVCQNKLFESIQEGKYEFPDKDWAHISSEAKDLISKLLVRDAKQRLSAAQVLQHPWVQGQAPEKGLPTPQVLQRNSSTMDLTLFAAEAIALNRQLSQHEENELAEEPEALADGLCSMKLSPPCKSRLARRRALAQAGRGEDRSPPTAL
Sequence of RSK1 (Q15418 whole entry): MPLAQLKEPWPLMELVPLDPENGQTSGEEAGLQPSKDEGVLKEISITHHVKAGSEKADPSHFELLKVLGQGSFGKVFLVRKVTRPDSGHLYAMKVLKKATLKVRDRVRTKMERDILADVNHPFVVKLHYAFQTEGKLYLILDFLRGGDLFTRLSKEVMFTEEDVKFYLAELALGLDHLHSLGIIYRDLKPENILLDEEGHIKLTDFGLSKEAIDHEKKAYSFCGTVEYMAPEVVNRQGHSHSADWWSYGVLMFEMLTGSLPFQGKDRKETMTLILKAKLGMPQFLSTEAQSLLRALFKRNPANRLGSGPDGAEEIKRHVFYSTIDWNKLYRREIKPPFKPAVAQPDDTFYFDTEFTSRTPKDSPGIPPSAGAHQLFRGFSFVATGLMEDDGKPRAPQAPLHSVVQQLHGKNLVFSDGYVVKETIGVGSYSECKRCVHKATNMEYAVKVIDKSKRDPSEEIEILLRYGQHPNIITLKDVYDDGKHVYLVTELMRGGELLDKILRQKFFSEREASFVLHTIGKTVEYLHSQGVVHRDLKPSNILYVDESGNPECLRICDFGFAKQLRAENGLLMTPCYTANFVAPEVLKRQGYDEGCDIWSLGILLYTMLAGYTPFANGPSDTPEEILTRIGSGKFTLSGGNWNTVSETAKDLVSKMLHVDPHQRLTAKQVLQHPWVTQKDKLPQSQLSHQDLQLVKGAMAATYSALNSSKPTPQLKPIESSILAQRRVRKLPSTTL
Sequence of PKCdelta (Q05655 whole entry): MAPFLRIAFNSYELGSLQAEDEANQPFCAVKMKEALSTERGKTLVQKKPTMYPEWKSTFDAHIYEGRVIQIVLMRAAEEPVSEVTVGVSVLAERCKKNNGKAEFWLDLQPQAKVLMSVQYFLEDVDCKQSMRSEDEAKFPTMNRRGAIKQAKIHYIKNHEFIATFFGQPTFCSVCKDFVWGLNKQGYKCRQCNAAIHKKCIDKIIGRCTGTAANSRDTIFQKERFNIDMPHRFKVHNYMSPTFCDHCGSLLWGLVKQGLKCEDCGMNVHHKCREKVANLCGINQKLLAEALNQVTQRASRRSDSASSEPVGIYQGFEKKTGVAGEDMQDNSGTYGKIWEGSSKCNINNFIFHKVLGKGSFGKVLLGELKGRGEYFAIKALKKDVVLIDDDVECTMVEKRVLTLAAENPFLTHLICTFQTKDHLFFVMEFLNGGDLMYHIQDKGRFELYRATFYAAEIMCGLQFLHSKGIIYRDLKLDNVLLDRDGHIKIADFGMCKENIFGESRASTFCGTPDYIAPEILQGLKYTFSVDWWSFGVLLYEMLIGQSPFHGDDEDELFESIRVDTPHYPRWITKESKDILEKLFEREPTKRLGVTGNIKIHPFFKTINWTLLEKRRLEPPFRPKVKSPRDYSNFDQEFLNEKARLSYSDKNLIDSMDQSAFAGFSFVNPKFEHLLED

On to `Fc1ccccc1CNCc1ccc(-c2ccnc3[nH]ccc23)cc1` [OXA-06], for which the “Compound / OXA-06” value in [1] is given as 95; in assay [20], 94; in assay [21], 58. The inhibition at 0.2 µM in assay [2] is 26%; in [3], 56%; in [4], 98%; in assay [5], 95%; in [6] it was 17%; in assay [7], 56%. For the same compound, the inhibition at 0.2 µM was -3% in assay [8]; 58% in [9]; 73% in [10]; 19% in assay [11]; 72% in [12]; 10% in assay [13]. In addition, the inhibition at 0.2 µM came out at 16% in [14]; 94% in assay [15]; 56% in [16]; 12% in assay [17]; 6% in assay [18]; 36% in assay [19].

Take `C[C@@H](N)[C@H]1CC[C@H](C(=O)Nc2ccncc2)CC1` [Y-27632]: the inhibition at 10 µM is 94% in assay [22]; 78% in assay [3]; 29% in assay [4]; 82% in assay [7]; 52% in assay [8]; 68% in assay [10]. The inhibition at 10 µM in assay [11] turned out to be 59%; in assay [12] it was 64%; in [13], 82%; in assay [14], 78%; in [16], 1%; in [18] it was 51%. Further, the inhibition at 10 µM turned out to be 55% in assay [19], 87% in assay [23], 95% in assay [24] and 82% in assay [25].
